Laboratory results: patent publication US10344019B2 (priority 2010, dated 2019)
pEC50: −log10 of the molar value.

Assays:
Assay in all cases: microbe, parasite or virus in culture
Format in all cases: cell-based
[1] = system: HCV 1b RLuc cells (dicistronic genotype 1b Con1 replicon, RLuc reporter); conditions: Hepatitis C virus, read-out: 1b (nM)
Outline: (§1)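 Renilla luciferase HCV replicon cells: dicistronic 1b Con1, 1a H77 or 2a JFH-1 replicons, or a JFH-1 chimera carrying J6 NS5A (M31 present). Compound in DMSO serial dilutions, 72 h incubation, then lysis and luciferase read. EC50 by non-linear regression.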

[2] = system: HCV 4a Rluc cells (NS5A chimeric genotype 1b Con1 replicon with genotype 4a NS5A gene); conditions: Hepatitis C virus, read-out: 4a
Outline: (§2)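 Replicon cells stably carrying the listed RLuc-encoding dicistronic replicons were seeded and treated with DMSO serial dilutions of compound (10 mM stocks) diluted into culture medium. After 72 h, cells were lysed and Renilla luciferase activity measured. EC50 was derived by non-linear regression.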

[3] = system: HCV 1a RLuc cells (dicistronic genotype 1a H77 replicon, RLuc reporter); conditions: Hepatitis C virus, genotype 1a replicon; read-out: 1a
Outline: as §1

[4] = system: HCV 3a RLuc cells (NS5A chimeric genotype 1b Con1 replicon with consensus genotype 3a NS5A gene); conditions: Hepatitis C virus, read-out: 3a, genotype 3a replicon
Outline: as §2

[5] = system: HCV 2a JFH-1 Rluc cells (dicistronic genotype 2a JFH-1 replicon, RLuc reporter); conditions: Hepatitis C virus, genotype 2a JFH-1 replicon; read-out: 2a JFH
Outline: as §1

SMILES | EC50 [1] | pEC50 [2] | pEC50 [3] | pEC50 [4] | pEC50 [5]
COC(=O)N[C@@H](C(=O)N1[C@@H]2CC[C@@H](C2)[C@H]1c1ncc(-c2ccc(-c3ccc4c(ccc5nc([C@@H]6C[C@H]7C[C@H]7N6C(=O)[C@H](NC(=O)OC)c6ccccc6)[nH]c54)c3)cc2)[nH]1)c1ccccc1 [Example 334] | 0.009 nM | 9.00 to 12.00 | 9.00 to 12.00 | 9.00 to 12.00 | 9.00 to 12.00
COC(=O)N[C@H](C(=O)N1[C@@H]2C[C@@H]2C[C@H]1c1nc2ccc3cc(-c4ccc(-c5cnc([C@@H]6[C@H]7CC[C@H](C7)N6C(=O)[C@@H](NC(=O)OC)C6CCOCC6)[nH]5)cc4)ccc3c2[nH]1)C(C)C [Example 335] | 0.027 nM | 9.00 to 12.00 | 9.00 to 12.00 | 9.00 to 12.00 | 9.00 to 12.00
COC(=O)N[C@H](C(=O)N1[C@@H]2C[C@@H]2C[C@H]1c1nc2ccc3cc(-c4ccc(-c5cnc([C@@H]6[C@H]7CC[C@H](C7)N6C(=O)[C@@H](NC(=O)OC)[C@@H](C)OC)[nH]5)cc4)ccc3c2[nH]1)C(C)C [Example 336] | 0.013 nM | 9.00 to 12.00 | 9.00 to 12.00 | 8.30 to 9.00 | 9.00 to 12.00
COC(=O)N[C@H](C(=O)N1[C@@H]2C[C@@H]2C[C@H]1c1nc2ccc3cc(-c4ccc(-c5cnc([C@@H]6[C@H]7CC[C@H](C7)N6C(=O)[C@H](NC(=O)OC)c6ccccc6)[nH]5)cc4)ccc3c2[nH]1)C(C)C [Example 337] | 0.01 nM | 9.00 to 12.00 | 9.00 to 12.00 | 9.00 to 12.00 | 9.00 to 12.00
COC(=O)N[C@H](C(=O)N1[C@H]2CC[C@H](C2)[C@H]1c1nc2ccc3cc(-c4ccc5c(ccc6nc([C@@H]7CCCN7C(=O)[C@@H](NC(=O)OC)C7CCOCC7)[nH]c65)c4)ccc3c2[nH]1)C(C)C [Example 338] | 0.127 nM | 9.00 to 12.00 | 9.00 to 12.00 | 9.00 to 12.00 | 9.00 to 12.00
COC(=O)N[C@H](C(=O)N1[C@@H]2CC[C@@H](C2)[C@H]1c1nc2ccc3cc(-c4ccc(-c5cnc([C@@H]6C[C@H]7C[C@H]7N6C(=O)[C@@H](NC(=O)OC)C(C)C)[nH]5)cc4)ccc3c2[nH]1)C(C)C [Example 340] | 0.013 nM | 9.00 to 12.00 | 9.00 to 12.00 | 9.00 to 12.00 | 9.00 to 12.00
COC(=O)N[C@H](C(=O)N1CCC[C@H]1c1ncc(-c2cc3c(cc2F)-c2ccc(-c4cnc([C@@H]5CCCN5C(=O)[C@@H](NC(=O)OC)C(C)C)[nH]4)c(F)c2CO3)[nH]1)C(C)C [Example 341] | 0.006 nM | 9.00 to 12.00 | 9.00 to 12.00 | 9.00 to 12.00 | 9.00 to 12.00
CC#Cc1cc(-c2cnc([C@@H]3CCCN3C(=O)[C@@H](NC(=O)OC)C(C)C)[nH]2)ccc1-c1ccc(-c2cnc([C@@H]3CCCN3C(=O)[C@@H](NC(=O)OC)C(C)C)[nH]2)cc1 [Example 342] | 0.01 nM | 9.00 to 12.00 | 9.00 to 12.00 | 9.00 to 12.00 | 9.00 to 12.00
COC(=O)N[C@H](C(=O)N1[C@@H]2C[C@@H]2C[C@H]1c1nc2ccc3cc(-c4ccc5c(ccc6nc([C@@H]7[C@H]8CC[C@H](C8)N7C(=O)[C@H](NC(=O)OC)c7ccccc7)[nH]c65)c4)ccc3c2[nH]1)C(C)C [Example 343] | 0.012 nM | 9.00 to 12.00 | 9.00 to 12.00 | 9.00 to 12.00 | 9.00 to 12.00
COC(=O)N[C@H](C(=O)N1[C@@H]2CC[C@@H](C2)[C@H]1c1nc2ccc3cc(-c4ccc5c(ccc6nc([C@@H]7C[C@H]8C[C@H]8N7C(=O)[C@H](NC(=O)OC)c7ccccc7)[nH]c65)c4)ccc3c2[nH]1)C(C)C [Example 344] | 0.01 nM | 9.00 to 12.00 | 9.00 to 12.00 | 9.00 to 12.00 | 9.00 to 12.00
CC#Cc1cc(-c2cnc([C@@H]3CCCN3C(=O)[C@@H](NC(=O)OC)C(C)C)[nH]2)ccc1-c1ccc(-c2cnc([C@@H]3CCCN3C(=O)[C@@H](NC(=O)OC)C3CCOCC3)[nH]2)cc1 [Example 347] | 0.055 nM | 9.00 to 12.00 | 9.00 to 12.00 | 9.00 to 12.00 | 9.00 to 12.00
CC#Cc1cc(-c2cnc([C@@H]3CCCN3C(=O)[C@@H](NC(=O)OC)C(C)C)[nH]2)ccc1-c1ccc(-c2cnc([C@@H]3CCCN3C(=O)[C@H](NC(=O)OC)c3ccccc3)[nH]2)cc1 [Example 348] | 0.011 nM | 9.00 to 12.00 | 9.00 to 12.00 | 9.00 to 12.00 | 9.00 to 12.00
COC(=O)N[C@H](C(=O)N1CCC[C@H]1c1ncc(-c2ccc(-c3ccc4c(ccc5nc([C@@H]6CCCN6C(=O)[C@@H](NC(=O)OC)C(C)C)[nH]c54)c3)c(C#CC3CC3)c2)[nH]1)C(C)C [Example 349] | 0.005 nM | 9.00 to 12.00 | 9.00 to 12.00 | 9.00 to 12.00 | 9.00 to 12.00
COC(=O)N[C@H](C(=O)N1CCC[C@H]1c1nc2ccc3cc(-c4ccc(-c5cnc([C@@H]6CCCN6C(=O)[C@@H](NC(=O)OC)C6CCOCC6)[nH]5)cc4C#CC4CC4)ccc3c2[nH]1)C(C)C [Example 350] | 0.02 nM | 9.00 to 12.00 | 9.00 to 12.00 | 9.00 to 12.00 | 9.00 to 12.00
COC(=O)N[C@H](C(=O)N1CCC[C@H]1c1nc2ccc3cc(-c4ccc(-c5cnc([C@@H]6CCCN6C(=O)[C@H](NC(=O)OC)c6ccccc6)[nH]5)cc4C#CC4CC4)ccc3c2[nH]1)C(C)C [Example 351] | 0.008 nM | 9.00 to 12.00 | 9.00 to 12.00 | 9.00 to 12.00 | 9.00 to 12.00
COC(=O)N[C@H](C(=O)N1CCC[C@H]1c1nc(Cl)c(-c2ccc(-c3ccc(-c4[nH]c([C@@H]5CCCN5C(=O)[C@@H](NC(=O)OC)C5CCOCC5)nc4Cl)cc3)cc2)[nH]1)C1CCOCC1 [Example 353] | 0.493 nM | 9.00 to 12.00 | 9.00 to 12.00 | 9.00 to 12.00 | 9.00 to 12.00
COC(=O)N[C@H](C(=O)N1CC2(C[C@H]1c1ncc(-c3ccc(-c4ccc5c(ccc6nc([C@@H]7CCCN7C(=O)[C@H](NC(=O)OC)c7ccccc7)[nH]c65)c4)cc3)[nH]1)OCCO2)C(C)C [Example 354] | 0.031 nM | 9.00 to 12.00 | 9.00 to 12.00 | 9.00 to 12.00 | 9.00 to 12.00
COC(=O)N[C@H](C(=O)N1CCC[C@H]1c1ncc(-c2ccc(-c3ccc(-c4[nH]c([C@@H]5CCCN5C(=O)[C@@H](NC(=O)OC)C(C)C)nc4Cl)cc3)cc2)[nH]1)C(C)C [Example 359] | 0.011 nM | 9.00 to 12.00 | 9.00 to 12.00 | 9.00 to 12.00 | 9.00 to 12.00
COC(=O)N[C@H](C(=O)N1CCC[C@H]1c1nc(Cl)c(-c2ccc(-c3ccc(-c4[nH]c([C@@H]5CCCN5C(=O)[C@@H](NC(=O)OC)C5CCOCC5)nc4Cl)cc3)cc2)[nH]1)C(C)C [Example 360] | 0.053 nM | 9.00 to 12.00 | 9.00 to 12.00 | 9.00 to 12.00 | 9.00 to 12.00
COC(=O)N[C@H](C(=O)N1CCC[C@H]1c1nc2c([nH]1)-c1ccc(-c3ccc4c(ccc5nc([C@@H]6CC7(CN6C(=O)[C@H](NC(=O)OC)c6ccccc6)OCCO7)[nH]c54)c3)cc1CC2)C(C)C [Example 366] | 0.075 nM | 9.00 to 12.00 | 9.00 to 12.00 | 9.00 to 12.00 | 9.00 to 12.00
COC(=O)N[C@H](C(=O)N1[C@@H]2CC[C@@H](C2)[C@H]1c1nc2ccc3cc(-c4ccc(-c5cnc([C@@H]6C[C@H]7C[C@H]7N6C(=O)[C@@H](NC(=O)OC)C6CCOCC6)[nH]5)cc4)ccc3c2[nH]1)C(C)C [Example 367] | 0.049 nM | 9.00 to 12.00 | 9.00 to 12.00 | 9.00 to 12.00 | 9.00 to 12.00
COC(=O)N[C@H](C(=O)N1[C@@H]2CC[C@@H](C2)[C@H]1c1nc2ccc3cc(-c4ccc(-c5cnc([C@@H]6C[C@H]7C[C@H]7N6C(=O)[C@H](NC(=O)OC)c6ccccc6)[nH]5)cc4)ccc3c2[nH]1)C(C)C [Example 368] | 0.012 nM | 9.00 to 12.00 | 9.00 to 12.00 | 9.00 to 12.00 | 9.00 to 12.00
COC(=O)N[C@H](C(=O)N1CCC[C@H]1c1nc2ccc3cc(-c4ccc5c(c4)CCc4nc(C6CC7(CN6C(=O)[C@H](NC(=O)OC)c6ccccc6)OCCO7)[nH]c4-5)ccc3c2[nH]1)C(C)C (some centres unmarked) [Example 369] | 0.047 nM | 9.00 to 12.00 | 9.00 to 12.00 | 9.00 to 12.00 | 9.00 to 12.00
COC(=O)N[C@H](C(=O)N1CCC[C@H]1c1ncc(-c2ccc(-c3ccc4c(ccc5nc([C@@H]6[C@H]7CC[C@H](C7)N6C(=O)[C@@H](NC(=O)OC)C(C)C)[nH]c54)c3)cc2Cl)[nH]1)C(C)C [Example 371] | 0.007 nM | 9.00 to 12.00 | 9.00 to 12.00 | < 8.30 | 9.00 to 12.00
CC#Cc1cc(-c2cnc([C@@H]3CCCN3C(=O)[C@@H](NC(=O)OC)C(C)C)[nH]2)ccc1-c1ccc2c(ccc3nc([C@@H]4CCCN4C(=O)[C@@H](NC(=O)OC)C(C)C)[nH]c32)c1 [Example 372] | 0.008 nM | 9.00 to 12.00 | 9.00 to 12.00 | 9.00 to 12.00 | 9.00 to 12.00
